Assay results taken from patent publication US20100204115A1, “USE OF ACETYL- (ALA10, 11)-RANTES (1-14) AND/OR CALCITONIN AS ANTI-ANGIOGENIC AGENTS” (priority 2007, published 2010).

Tests used:
HIV-1IIIB = test: HIV-1 antiviral assay in CEM-SS cells (MTS readout); details: positive controls
HCMV strain AD169 = test: HCMV plaque formation assay in MRC-5 cells; details: for inhibition of HCMV plaque formation as compared to the virus control experiment: 10 micrograms per ml, 7-10 days
[1] = system: Primary Human endothelial cells (HUVEC); test: Endothelial cell migration assay; type: cell-based; details: 10 micrograms per ml, 22 hours
TNF-a, spleen cells = test: Th1/Th2 cytokine profiling assay, TNF-a; type: cell-based, Balb/c mice; details: 10 micrograms per ml; Ovalbumin-restimulated spleen cells, 72 hours
Excerpt: (§1) Th1/Th2 Cytokine Profiling Assay The Balb/c mice (originated in 1923, it is a popular strain and is used in many different research disciplines. […] On day 50, spleens of the mice were harvested (3 weeks after last boost with Ovalbumin). […] This kit can be used to measure Interleukin-2 (IL-2), Interleukin-4 (IL-4), Interleukin-5 (IL-5), Interferon-γ (IFN-γ), and Tumor Necrosis Factor-α (TNF-α) protein levels in a single sample. The kit performance has been optimized for analysis of physiologically relevant concentrations (pg/ml levels) of specific cytokine proteins in tissue culture supernatants and serum samples.

IL-4, spleen cells = test: Th1/Th2 cytokine profiling assay, IL-4; type: cell-based, Balb/c mice; details: 10 micrograms per ml; Ovalbumin-restimulated spleen cells, 72 hours
Excerpt: as §1

IFNγ, spleen cells = test: Th1/Th2 cytokine profiling assay, IFNγ; type: cell-based, Balb/c mice; details: 10 micrograms per ml; Ovalbumin-restimulated spleen cells, 72 hours
Excerpt: as §1

IL-5, spleen cells = test: Th1/Th2 cytokine profiling assay, IL-5; type: cell-based, Balb/c mice; details: 10 micrograms per ml; Ovalbumin-restimulated spleen cells, 72 hours
Excerpt: as §1

A549 cells = test: Apoptosis prevention assay (C2 ceramide, Annexin-5); type: cell-based, human; details: 10 micrograms per ml, 30 min pretreatment
IL-2, spleen cells = test: Th1/Th2 cytokine profiling assay, IL-2; type: cell-based, Balb/c mice; details: 10 micrograms per ml; Ovalbumin-restimulated spleen cells, 72 hours
Excerpt: as §1

RAW 264.7 cells = test: Phagocytosis assay (Fluorescein-labeled Escherichia coli, flow cytometry); type: cell-based, mouse; details: 10 micrograms per ml
[2] = system: hepatitis B virus (HBV) ayw strain; test: HBV experimental assay system, secreted HBV DNA by TaqMan PCR; type: cell-based; details: 10 micrograms per ml; HepG2-2.2.15, six days, HBV DNA in supernatant; combination 0.95 mole peptide 1 and 1.05 mole peptide 2
HUVEC = test: Endothelial tube formation assay; type: cell-based, human; details: 10 micrograms per ml, 20 hours, average tubule length, combination peptide 1:peptide 2 0.95 mole:1.05 mole
Protocol: The endothelial tube formation assay is based on the ability of endothelial cells to form three-dimensional capillary-like tubular structures when cultured on a gel of basement membrane extract. The endothelial tube formation assay represents a powerful model for studying inhibition and induction of angiogenesis. Pre-labeled HUVEC with Calcein AM were seeded in a 96-well culture plate coated with extracellular metrix (Chemicon international Cat. ECM625) and treated with test peptides—10 micrograms per ml—in full growth medium. Positive control was vehicle only. The endothelial cells were allowed to form tubes foe 20 hours and were then examined under an inverted fluorescent microscope. Duplicate wells for each treatment were photographed and quantitatively analyzed for an average tubule length using image analysis software ImageProPlus. Raw data were expressed as average tubule lenghs in pixels ±standard deviation. Statistic p values were computed using the Student's t-test.

Compound	antiviral activity of positive control compounds (HIV-1IIIB)	TNF-a spleen cells; TH1 response (% of control) (TNF-a, spleen cells)	IL-4 spleen cells; TH2 response (% of control) (IL-4, spleen cells)	inhibition of HCMV plaque formation as compared to the virus control experiment (HCMV strain AD169)	IFNγ spleen cells; TH1 response (% of control) (IFNγ, spleen cells)	IL-5 spleen cells; TH2 response (% of control) (IL-5, spleen cells)	IL-2 spleen cells (% of control) (IL-2, spleen cells)	inhibition of HBV replication as compared to the virus control infection [2] [%]	inhibition of the tube formation of endothelial cells (HUVEC) [%]	other results
Cc1cn([C@H]2C[C@H](N=[N+]=[N-])[C@@H](CO)O2)c(=O)[nH]c1=O [AZT]	expected levels of antiviral activity									
Nc1nc(O)c2ncn(COC(CO)CO)c2n1 [Ganciclovir, reference compound]										antiviral activity of positive control compound (HCMV strain AD169; HCMV AD169, positive control): expected levels of antiviral activity
CC(C)(C)NC(=O)[C@@H]1CN(Cc2cccnc2)CCN1C[C@@H](O)C[C@@H](Cc1ccccc1)C(=O)N[C@H]1c2ccccc2C[C@H]1O [indinavir]	expected levels of antiviral activity									
Ac-Ser-Pro-Tyr-Ser-Ser-Asp-Thr-Thr-Pro-Ala-Ala-Phe-Ala-Tyr-NH2 (Ac-SPYSSDTTPAAFAY-NH2) [peptide 1]		107.4 % of control	80.4 % of control	did not inhibit HCMV plaque formation	102.8 % of control	70.7 % of control	116.2 % of control	40.7	26	induction of the migration of human endothelial cells [1]: 11%; increase of the ceramide-induced apoptosis on human lung cells (A549 cells): 13.2%; increase of the phagocytic activity of murine macrophages (RAW 264.7 cells; RAW 264.7, Fluorescein-labeled E. coli): 42.9%
Cys-Gly-Asn-Leu-Ser-Thr-Cys-Met-Leu-Gly-Thr-Tyr-Thr-Gln-Asp-Phe-Asn-Lys-Phe-His-Thr-Phe-Pro-Gln-Thr-Ala-Ile-Gly-Val-Gly-Ala-Pro-NH2 [peptide 2]		116.4 % of control	0.0 % of control	did not inhibit HCMV plaque formation	63.7 % of control	60.2 % of control	110.1 % of control	31.0	18	inhibition of the migration of human endothelial cells [1]: 26%; reduction of the ceramide-induced apoptosis on human lung cells (A549 cells; combination 0.95 mole peptide 1 and 1.05 mole peptide 2): 32.7%; inhibitory or activating effects on the phagocytic activity of murine macrophages (RAW 264.7 cells; RAW 264.7, combination peptide 1:peptide 2 1.10 mole:0.90 mole): no inhibitory or activating effects on the phagocytic activity
